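Assay format: 96-well plates, 48-hour exposure. GI50 marks 50% less growth. At the TGI there is no net growth.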
What was measured:
Experiment in all cases: DTP human tumour cell line panel, 48 h
IGROV1 ovarian = system: IGROV1 ovarian
MDA-MB-231 breast = system: MDA-MB-231 breast
U251 CNS = system: U251 CNS
HCT-116 colon = system: HCT-116 colon
EKVX NSCLC = system: EKVX NSCLC
SW-620 colon = system: SW-620 colon
MALME-3M melanoma = system: MALME-3M melanoma
LOX IMVI melanoma = system: LOX IMVI melanoma
BT-549 breast = system: BT-549 breast
SK-OV-3 ovarian = system: SK-OV-3 ovarian
A498 renal = system: A498 renal
OVCAR-5 ovarian = system: OVCAR-5 ovarian
K-562 leukemia = system: K-562 leukemia
M14 melanoma = system: M14 melanoma
SK-MEL-28 melanoma = system: SK-MEL-28 melanoma
HT29 colon = system: HT29 colon
PC-3 prostate = system: PC-3 prostate
SF-268 CNS = system: SF-268 CNS
NCI-H460 lung = system: NCI-H460 lung
TK-10 renal = system: TK-10 renal
RPMI-8226 leukemia = system: RPMI-8226 leukemia
COLO 205 colon = system: COLO 205 colon
SK-MEL-5 melanoma = system: SK-MEL-5 melanoma
HCT-15 colon = system: HCT-15 colon
SNB-19 CNS = system: SNB-19 CNS
NCI/ADR-RES ovarian = system: NCI/ADR-RES ovarian
SR leukemia = system: SR leukemia
HCC-2998 colon = system: HCC-2998 colon
ACHN renal = system: ACHN renal
SK-MEL-2 melanoma = system: SK-MEL-2 melanoma
CCRF-CEM leukemia = system: CCRF-CEM leukemia
T-47D breast = system: T-47D breast
UO-31 renal = system: UO-31 renal
HOP-92 NSCLC = system: HOP-92 NSCLC
MOLT-4 leukemia = system: MOLT-4 leukemia
NCI-H226 lung = system: NCI-H226 lung
HS 578T breast = system: HS 578T breast
786-0 renal = system: 786-0 renal
MDA-MB-435 = system: MDA-MB-435
OVCAR-8 ovarian = system: OVCAR-8 ovarian
SF-295 CNS = system: SF-295 CNS
OVCAR-3 ovarian = system: OVCAR-3 ovarian
HL-60(TB) leukemia = system: HL-60(TB) leukemia
SN12C renal = system: SN12C renal
RXF 393 renal = system: RXF 393 renal
NCI-H522 lung = system: NCI-H522 lung
SF-539 CNS = system: SF-539 CNS
MCF7 breast = system: MCF7 breast
SNB-75 CNS = system: SNB-75 CNS
UACC-257 melanoma = system: UACC-257 melanoma
HOP-62 NSCLC = system: HOP-62 NSCLC
UACC-62 melanoma = system: UACC-62 melanoma
KM12 colon = system: KM12 colon
OVCAR-4 ovarian = system: OVCAR-4 ovarian
A549 NSCLC = system: A549 NSCLC
CAKI-1 renal = system: CAKI-1 renal
NCI-H23 lung = system: NCI-H23 lung
DU-145 prostate = system: DU-145 prostate
MDA-N = system: MDA-N

`CC(C)(C)NC/C(=C\c1ccccc1)C(=O)c1ccccc1` gave a GI50 (IGROV1 ovarian) of 2.78 µM, a TGI (IGROV1 ovarian) of 8.99 µM and a GI50 (MDA-MB-231 breast) of 2.72 µM. The TGI (MDA-MB-231 breast) was 8.12 µM, the GI50 (U251 CNS) was 2.3 µM and the TGI (U251 CNS) was 6.41 µM. It also gave a GI50 (HCT-116 colon) of 1.18 µM, a TGI (HCT-116 colon) of 2.58 µM and a GI50 (EKVX NSCLC) of 3.29 µM. The TGI (EKVX NSCLC) was 13.6 µM, the GI50 (SW-620 colon) was 1.22 µM and the TGI (SW-620 colon) was 3.5 µM. The GI50 (MALME-3M melanoma) was 2.04 µM, the TGI (MALME-3M melanoma) was 4.88 µM and the GI50 (LOX IMVI melanoma) was 1.3 µM. For the same compound, the TGI (LOX IMVI melanoma) was 2.89 µM, the GI50 (BT-549 breast) was 2.03 µM and the TGI (BT-549 breast) was 4.39 µM. It also gave a GI50 (SK-OV-3 ovarian) of 3.83 µM, a TGI (SK-OV-3 ovarian) of 13.8 µM and a GI50 (A498 renal) of 1.8 µM. It also gave a TGI (A498 renal) of 3.64 µM, a GI50 (OVCAR-5 ovarian) of 2.33 µM and a TGI (OVCAR-5 ovarian) of 4.48 µM. For the same compound, the GI50 (K-562 leukemia) was 2.24 µM, the TGI (K-562 leukemia) was 12.4 µM and the GI50 (M14 melanoma) was 1.8 µM. It also gave a TGI (M14 melanoma) of 4.2 µM, a GI50 (SK-MEL-28 melanoma) of 1.9 µM and a TGI (SK-MEL-28 melanoma) of 3.75 µM. It also gave a GI50 (HT29 colon) of 0.9 µM, a TGI (HT29 colon) of 3.52 µM and a GI50 (PC-3 prostate) of 3.44 µM. The TGI (PC-3 prostate) was 13 µM, the GI50 (SF-268 CNS) was 3.8 µM and the TGI (SF-268 CNS) was 21 µM. It also gave a GI50 (NCI-H460 lung) of 1.88 µM, a TGI (NCI-H460 lung) of 4.57 µM and a GI50 (TK-10 renal) of 0.94 µM. For the same compound, the TGI (TK-10 renal) was 2.28 µM, the GI50 (RPMI-8226 leukemia) was 2.14 µM and the TGI (RPMI-8226 leukemia) was 7.31 µM. The GI50 (COLO 205 colon) was 1.34 µM, the TGI (COLO 205 colon) was 2.88 µM and the GI50 (SK-MEL-5 melanoma) was 1.53 µM. It also gave a TGI (SK-MEL-5 melanoma) of 2.91 µM, a GI50 (HCT-15 colon) of 1.56 µM and a TGI (HCT-15 colon) of 7.16 µM. The GI50 (SNB-19 CNS) was 4.27 µM, the TGI (SNB-19 CNS) was 18.4 µM and the GI50 (NCI/ADR-RES ovarian) was 2.31 µM. It also gave a TGI (NCI/ADR-RES ovarian) of 10.8 µM, a GI50 (SR leukemia) of 1.67 µM and a TGI (SR leukemia) of 8.68 µM. For the same compound, the GI50 (HCC-2998 colon) was 1.74 µM, the TGI (HCC-2998 colon) was 3.35 µM and the GI50 (ACHN renal) was 1.45 µM. The TGI (ACHN renal) was 3.62 µM, the GI50 (SK-MEL-2 melanoma) was 2.01 µM and the TGI (SK-MEL-2 melanoma) was 5.02 µM. For the same compound, the GI50 (CCRF-CEM leukemia) was 0.936 µM, the TGI (CCRF-CEM leukemia) was 51.7 µM and the GI50 (T-47D breast) was 2.19 µM. It also gave a TGI (T-47D breast) of 8.98 µM, a GI50 (UO-31 renal) of 1.41 µM and a TGI (UO-31 renal) of 2.88 µM. The GI50 (HOP-92 NSCLC) was 2.4 µM, the TGI (HOP-92 NSCLC) was 6.56 µM and the GI50 (MOLT-4 leukemia) was 2.23 µM. The TGI (MOLT-4 leukemia) was 45.9 µM, the GI50 (NCI-H226 lung) was 2.2 µM and the TGI (NCI-H226 lung) was 11.2 µM. For the same compound, the GI50 (HS 578T breast) was 6.11 µM, the TGI (HS 578T breast) was 60.7 µM and the GI50 (786-0 renal) was 1.95 µM. For the same compound, the TGI (786-0 renal) was 4.01 µM, the GI50 (MDA-MB-435) was 2.51 µM and the TGI (MDA-MB-435) was 12.8 µM. For the same compound, the GI50 (OVCAR-8 ovarian) was 2.82 µM, the TGI (OVCAR-8 ovarian) was 10.1 µM and the GI50 (SF-295 CNS) was 2.86 µM. For the same compound, the TGI (SF-295 CNS) was 11.4 µM, the GI50 (OVCAR-3 ovarian) was 1.19 µM and the TGI (OVCAR-3 ovarian) was 3.19 µM. The GI50 (HL-60(TB) leukemia) was 2.59 µM, the TGI (HL-60(TB) leukemia) was 14.1 µM and the GI50 (SN12C renal) was 1.95 µM. For the same compound, the TGI (SN12C renal) was 6.34 µM, the TGI (RXF 393 renal) was 2.37 µM and the GI50 (NCI-H522 lung) was 0.371 µM. It also gave a TGI (NCI-H522 lung) of 1.77 µM, a GI50 (SF-539 CNS) of 3.01 µM and a TGI (SF-539 CNS) of 7.2 µM. It also gave a GI50 (MCF7 breast) of 1.08 µM, a TGI (MCF7 breast) of 10.4 µM and a GI50 (SNB-75 CNS) of 4.67 µM. It also gave a TGI (SNB-75 CNS) of 17.9 µM, a GI50 (UACC-257 melanoma) of 2.12 µM and a TGI (UACC-257 melanoma) of 6.91 µM. For the same compound, the GI50 (HOP-62 NSCLC) was 3.44 µM, the TGI (HOP-62 NSCLC) was 11.4 µM and the GI50 (UACC-62 melanoma) was 1.51 µM. For the same compound, the TGI (UACC-62 melanoma) was 4.91 µM, the GI50 (KM12 colon) was 3.01 µM and the TGI (KM12 colon) was 24.4 µM. It also gave a GI50 (OVCAR-4 ovarian) of 5.6 µM, a TGI (OVCAR-4 ovarian) of 19.6 µM and a GI50 (A549 NSCLC) of 2.75 µM. It also gave a TGI (A549 NSCLC) of 8.23 µM, a GI50 (CAKI-1 renal) of 1.88 µM and a TGI (CAKI-1 renal) of 6.36 µM. The GI50 (NCI-H23 lung) was 1.77 µM, the TGI (NCI-H23 lung) was 5.02 µM and the GI50 (DU-145 prostate) was 2.68 µM. For the same compound, the TGI (DU-145 prostate) was 9.63 µM.
With `O=C1CN(c2ccc(Cl)cc2)C(=O)CN1NCNN1CC(=O)N(c2ccc(Cl)cc2)CC1=O` the TGI (IGROV1 ovarian) was over 100 µM, the TGI (MDA-N) was over 100 µM and the TGI (U251 CNS) was over 100 µM. The TGI (HCT-116 colon) was over 100 µM, the TGI (EKVX NSCLC) was over 100 µM and the TGI (SW-620 colon) was over 100 µM. The TGI (MALME-3M melanoma) was over 100 µM, the TGI (BT-549 breast) was over 100 µM and the TGI (SK-OV-3 ovarian) was over 100 µM. The TGI (A498 renal) was over 100 µM, the TGI (OVCAR-5 ovarian) was over 100 µM and the TGI (M14 melanoma) was over 100 µM. For the same compound, the TGI (SK-MEL-28 melanoma) was over 100 µM, the TGI (HT29 colon) was over 100 µM and the TGI (PC-3 prostate) was over 100 µM. It also gave a TGI (SF-268 CNS) of over 100 µM, a TGI (NCI-H460 lung) of over 100 µM and a TGI (TK-10 renal) of over 100 µM. For the same compound, the TGI (RPMI-8226 leukemia) was over 100 µM, the TGI (COLO 205 colon) was over 100 µM and the TGI (SK-MEL-5 melanoma) was over 100 µM. It also gave a TGI (HCT-15 colon) of over 100 µM, a TGI (SNB-19 CNS) of over 100 µM and a TGI (SR leukemia) of over 100 µM. For the same compound, the TGI (HCC-2998 colon) was over 100 µM, the TGI (ACHN renal) was over 100 µM and the TGI (CCRF-CEM leukemia) was over 100 µM. For the same compound, the TGI (UO-31 renal) was over 100 µM, the TGI (HOP-92 NSCLC) was over 100 µM and the TGI (MOLT-4 leukemia) was over 100 µM. For the same compound, the TGI (HS 578T breast) was over 100 µM, the TGI (786-0 renal) was over 100 µM and the TGI (MDA-MB-435) was over 100 µM. It also gave a TGI (OVCAR-8 ovarian) of over 100 µM, a TGI (SF-295 CNS) of over 100 µM and a TGI (OVCAR-3 ovarian) of over 100 µM. It also gave a TGI (HL-60(TB) leukemia) of over 100 µM, a TGI (SN12C renal) of over 100 µM and a TGI (RXF 393 renal) of over 100 µM. For the same compound, the TGI (NCI-H522 lung) was over 100 µM, the TGI (SF-539 CNS) was over 100 µM and the TGI (MCF7 breast) was over 100 µM. For the same compound, the TGI (SNB-75 CNS) was over 100 µM, the TGI (UACC-257 melanoma) was over 100 µM and the TGI (HOP-62 NSCLC) was over 100 µM. The TGI (UACC-62 melanoma) was over 100 µM, the TGI (KM12 colon) was over 100 µM and the TGI (OVCAR-4 ovarian) was over 100 µM. For the same compound, the TGI (A549 NSCLC) was over 100 µM, the TGI (CAKI-1 renal) was over 100 µM and the TGI (NCI-H23 lung) was over 100 µM. It also gave a TGI (DU-145 prostate) of over 100 µM.

From PubChem BioAssay (NCI)
